One data set has as its target T1, GST-ΔPH-Akt1 (Homo sapiens, UniProt P31749).
T1 construct: named GST-deltaPH-Akt1; 107480aa; cloned in the pAcG1 vector; made in house; host or cells: SF9 insect cells (pAcG1 vector), co-expressed with PDK1
As to the kind of experiment: Biochemical ΔPH Akt1 assay (flashplate, 33P-ATP, histone 2B). To be noted: GST-ΔPH-Akt1, histone 2B substrate, 100 nM ATP, 80 minutes at 30° C.; read-out: Akt inhibition: IC50 (inhibition of deltaPHAkt1). An excerpt: For the biochemical assay ΔPHAkt1 was used devoid of its PH domain as a GST fusion protein (named GST-deltaPH-Akt1; 107480aa; cloned in the pAcG1 vector (BD Biosciences Pharmingen)), co-expressed with PDK1 in SF9 insect cells. The protein was purified using glutathion-affinity chromatography by standard protocols.
In order to study the inhibition of Akt according to the invention, a flashplate-based assay has been developed.
The Akt1 assay is a biochemical assay using Akt1 devoid of its PH domain and co-expressed with PDK1 in insect cells. The GST-ΔPH-Akt1 assay is run in 96 well plates by incubating 100 ng/well GST-ΔPH-Akt1, 100 ng/well histone 2B (Roche, #223514) as substrate, 10 μl of compound of invention (test compounds were dissolved as 10 mM solutions in dimethylsulfoxide (DMSO) and subsequently diluted) and 100 nM ATP (including ^33P-ATP) in 100 μl of reaction buffer ([…], pH7.5; 3 mM MgCl2; 3 mM MnCl2; 3 μM Na-Orthovanadat; 1 mM DTT; 1 μg/ml PEG8000) for 80 minutes at 30° C. The reactions are terminated by adding 100 μl stopping buffer (2% H3PO4 for 5 minutes) and are washed 3 times by using washing buffer (0.9% NaCl). Relying on the incorporation of ^33P into the protein substrate histone 2B, the detection is based on the adhesion of the phosphorylated protein to the surface of scintillator-coated flash plates (NEN, USA; #SMP-200). This phosphorylation is measured by counting the plate for 60 sec. using a plate reader (Wallac Microbeta; Perkin Elmer, USA). The analysis of the data is performed using a biostatistical program (GraphPad Prism, USA).

T1 sequence (P31749 107-480 limits assumed, stated change not applied): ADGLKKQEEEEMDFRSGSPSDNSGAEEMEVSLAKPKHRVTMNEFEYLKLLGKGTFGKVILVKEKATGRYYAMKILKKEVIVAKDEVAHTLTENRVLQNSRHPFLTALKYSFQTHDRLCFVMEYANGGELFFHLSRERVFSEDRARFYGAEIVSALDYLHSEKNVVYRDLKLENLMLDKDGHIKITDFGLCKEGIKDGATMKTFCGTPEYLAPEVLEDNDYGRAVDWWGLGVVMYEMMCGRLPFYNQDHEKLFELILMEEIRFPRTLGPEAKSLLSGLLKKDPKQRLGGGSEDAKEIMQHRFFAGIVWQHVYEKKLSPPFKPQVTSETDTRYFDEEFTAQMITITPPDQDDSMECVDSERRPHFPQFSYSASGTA

`Nc1cccc(C(=O)Nc2ccc(Nc3cc(-c4cccc5c4oc4ccccc45)ncn3)cc2)c1.O=C(O)C(F)(F)F` [Compound 51, 3-Amino-N-[4-(6-Dibenzofuran-4-yl-pyrimidin-4-ylamino)-phenyl]-benzamide trifluoroacetate] showed a melting point of 140 to 147 °C. The IC50 on GST-ΔPH-Akt1 was no more than 5 µM.

In the case of `O=C(Nc1ccc(Nc2cc(-c3cccc4c3oc3ccccc34)ncn2)cc1)c1cccc(N2CCCC2)c1` [Compound 6, N-[4-(6-Dibenzofuran-4-yl-pyrimidin-4-ylamino)-phenyl]-3-pyrrolidin-1-ylbenzamide], the melting point is 250 to 255 °C. Moreover, at GST-ΔPH-Akt1, the IC50 was no more than 5 µM.

Molecule `NCc1cccc(C(=O)Nc2cccc(Nc3cc(-c4cccc5c4oc4ccccc45)ncn3)c2)c1.O=C(O)C(F)(F)F` [Compound 61, 3-Aminomethyl-N-[3-(6-dibenzofuran-4-yl-pyrimidin-4-ylamino)-phenyl]-benzamide trifluoroacetate] came in with a melting point of 150 to 156 °C. Besides, the IC50 on GST-ΔPH-Akt1 is no more than 5 µM.

The molecule `CN(C)Cc1ccc(C(=O)Nc2ccc(Nc3cc(-c4cccc5c4oc4ccccc45)ncn3)cc2)cc1` [Compound 12, N-[4-(6-Dibenzofuran-4-yl-pyrimidin-4-ylamino)-phenyl]-4-dimethylaminomethyl-benzamide] had a melting point of 299 °C. In addition, on GST-ΔPH-Akt1, the IC50 was no more than 5 µM.

Regarding `O=C(Nc1ccc(Nc2cc(-c3cccc4c3oc3ccccc34)ncn2)cc1)c1ccncc1` [Compound 11, N-[4-(6-Dibenzofuran-4-yl-pyrimidin-4-ylamino)-phenyl]-isonicotinamide], the melting point was 283 to 295 °C. Also, the IC50 at GST-ΔPH-Akt1 was no more than 5 µM.

On to `COCCNc1ccc(C(=O)Nc2ccc(Nc3cc(-c4cccc5c4oc4ccccc45)ncn3)cc2)cc1.O=C(O)C(F)(F)F` [Compound 71, N-[4-(6-Dibenzofuran-4-yl-pyrimidin-4-ylamino)-phenyl]-4-(2-methoxyethylamino)benzamide trifluoroacetate], for which the melting point was greater than 250 °C. At GST-ΔPH-Akt1, the IC50 was no more than 5 µM.

`Nc1ccccc1C(=O)Nc1cccc(Nc2cc(-c3cccc4c3oc3ccccc34)ncn2)c1.O=C(O)C(F)(F)F` [Compound 59, 2-Amino-N-[3-(6-dibenzofuran-4-yl-pyrimidin-4-ylamino)-phenyl]-benzamide trifluoroacetate] showed a melting point of 140 to 150 °C. Also, the IC50 on GST-ΔPH-Akt1 is no more than 5 µM.

As to `NCc1ccc(C(=O)Nc2ccc(Nc3cc(-c4cccc5c4oc4ccccc45)ncn3)cc2)nc1.O=C(O)C(F)(F)F` [Compound 77, 5-Aminomethyl-pyridine-2-carboxylic acid [4-(6-dibenzofuran-4-yl-pyrimidin-4-ylamino)-phenyl]-amide trifluoroacetate], the melting point fell in the range of 164 to 170 °C. Further, the IC50 on GST-ΔPH-Akt1 was no more than 5 µM.

(Values after patent US7879853B2, “4,6-disubstituted pyrimidines and their use as protein kinase inhibitors” (Bayer Schering Pharma AG, priority 2004, dated 2011).)
